Reference: PMC2191966 (The Journal of Experimental Medicine, 1995)

Experiments:
[1] = system: T2-Kk cells; format: cell-based; details: Kk-restricted anti-[…] line, E:T 10:1, Fig. 9 e
[2] = system: T2-Db cells; assay: 4-h 51Cr CTL assay, clone F5, T2-Db cells with added synthetic peptide; format: cell-based
[3] = system: T2-Db cells; format: cell-based; details: chloroquine: preincubation 80 μM, infection 60 μM, assay 5 μM; Fig. 6
[4] = system: L-Db cells; format: cell-based, Murine; details: BFA; functional TAP complex; Fig. 6 a
[5] = T2-Db lysate with protease inhibitors; Fig. 5

SDYEGRLI
lowest peptide concentration at which pulsed T2 transfectants are recognized [1]: ≤ 0.5 nM

IASNENMDAM [365-374]
relative potency in sensitizing T2-Db cells for lysis ([2]; relative to 366-374, Fig. 3 a): followed by 365-374

QIASNENMDAM [364-374]
loss of potency in sensitizing T2-Db cells for lysis (fold less potent) ([2]; Fig. 3 a): over 10,000 fold

CCN(CC)CCCC(C)Nc1ccnc2cc(Cl)ccc12 (stereo not drawn) [chloroquine]
effect on processing and presentation of L+M364 and L+IMP in T2-Db cells [3]: no effect

C[C@H]1CCC/C=C/[C@@H]2C[C@H](O)C[C@H]2[C@H](O)/C=C/C(=O)O1 [BFA, brefeldin A]
effect on presentation of L+ and L- polypeptides in L-Db cells [4]: Inhibition of presentation of both the L+ and L-polypeptides in L-Db cells

MASNENMDAM [M366-374]
in vitro degradation after cell lysis [5]: Little in vitro degradation of M366-374 occurs after cell lysis
